From patent US12577234B2, “Antagonists of the muscarinic acetylcholine receptor M4” (Vanderbilt University, priority 2017, dated 2026)

How the values were obtained:
[1] = molecular target: T1, human mAChR M4 (Homo sapiens, UniProt P08173); test: mAChR M4 cell-based functional assay (calcium mobilization, EC80 acetylcholine), human M4; settings: for IC50: M4/Gqi5/CHO-K1 cells, decrease of EC80 acetylcholine response; for Emin: human M4, % ACh maximum at 30 μM
T1 construct: expressed in transfected cells; host or cells: CHO-K1 (ATCC), stably co-expressing chimeric G protein Gqi5
T1 sequence (P08173 1-479): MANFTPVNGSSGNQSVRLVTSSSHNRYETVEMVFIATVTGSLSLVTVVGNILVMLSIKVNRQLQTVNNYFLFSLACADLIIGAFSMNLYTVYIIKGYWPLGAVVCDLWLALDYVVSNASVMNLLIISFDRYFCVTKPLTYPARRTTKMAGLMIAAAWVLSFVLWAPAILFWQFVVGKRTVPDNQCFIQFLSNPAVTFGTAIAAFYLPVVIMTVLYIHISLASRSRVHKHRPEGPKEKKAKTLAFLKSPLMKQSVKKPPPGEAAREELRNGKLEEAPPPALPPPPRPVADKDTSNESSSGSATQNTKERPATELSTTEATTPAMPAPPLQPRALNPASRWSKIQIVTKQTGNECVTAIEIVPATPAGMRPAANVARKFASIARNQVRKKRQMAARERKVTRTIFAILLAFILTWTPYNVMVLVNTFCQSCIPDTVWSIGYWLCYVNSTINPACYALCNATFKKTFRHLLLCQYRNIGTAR
Method in brief: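 CHO-K1 cells stably expressing human M4 with chimeric Gqi5; intracellular calcium rise read on FDSS as fluorescence static ratio at 1 Hz. Compounds in 10-point 1:3 dilution series; IC50 taken as concentration-dependent decrease of the EC80 acetylcholine response, four-parameter logistic fit.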

[2] = molecular target: T2, rat mAChR M4 (Rattus norvegicus, UniProt P08485); test: mAChR M4 cell-based functional assay (calcium mobilization, EC80 acetylcholine), rat M4; settings: Table 10; for IC50: M4/Gqi5/CHO-K1 cells, decrease of EC80 acetylcholine response
T2 construct: expressed in transfected cells; host or cells: CHO-K1 (ATCC), stably co-expressing chimeric G protein Gqi5
T2 sequence (P08485 1-478): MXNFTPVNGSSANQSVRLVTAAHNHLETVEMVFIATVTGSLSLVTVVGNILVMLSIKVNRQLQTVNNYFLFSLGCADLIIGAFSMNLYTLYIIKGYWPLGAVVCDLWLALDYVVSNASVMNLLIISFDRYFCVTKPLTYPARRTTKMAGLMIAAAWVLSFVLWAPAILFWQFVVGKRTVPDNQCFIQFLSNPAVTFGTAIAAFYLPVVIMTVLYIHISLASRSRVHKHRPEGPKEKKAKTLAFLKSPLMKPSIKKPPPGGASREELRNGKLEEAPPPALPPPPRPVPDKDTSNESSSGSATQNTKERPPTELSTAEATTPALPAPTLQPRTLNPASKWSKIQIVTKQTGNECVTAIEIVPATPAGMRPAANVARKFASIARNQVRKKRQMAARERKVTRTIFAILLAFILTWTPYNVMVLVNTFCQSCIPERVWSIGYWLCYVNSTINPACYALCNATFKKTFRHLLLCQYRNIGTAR
Procedure: Human or rat M4 cDNA, along with the chimeric G protein Gqi5, were transfected into Chinese hamster ovary (CHO-K1) cells purchased from the American Type Culture Collection using Lipofectamine2000. M4/Gqi5/CHO cells were grown in Ham's F-12 medium containing 10% heat-inactivated fetal bovine serum (FBS), 20 mM HEPES, 500 μg/mL G418 sulfate, and 200 μg/mL Hygromycin B.
For high throughput measurement of agonist-evoked increases in intracellular calcium, CHO-K1 cells stably expressing muscarinic receptors were plated in growth medium lacking G418 and hygromycin at 15,000 cells/20 μL/well in Greiner 384-well black-walled, tissue culture (TC)-treated, clear-bottom plates (VWR). Cells were incubated overnight at 37° C. and 5% CO2. The next day, cells were washed using an ELX 405 (BioTek) with assay buffer; the final volume was then aspirated to 20 μL. Next, 20 μL of a 2.3 μM stock of Fluo-4/acetoxymethyl ester (Invitrogen, Carlsbad, CA), prepared as a 2.3 mM stock in DMSO and mixed in a 1:1 ratio with 10% (w/v) Pluronic F-127 and diluted in assay buffer, was added to the wells and the cell plates were incubated for 50 min at 37° C. and 5% CO2. Dye was removed by washing with the ELX 405 and the final volume was aspirated to 20 μL. Compound master plates were formatted in a 10 point concentration-response curve (CRC) format (1:3 dilutions) in 100% DMSO with a starting concentration of 10 or 1 mM using a BRAVO liquid handler (Agilent). Test compound CRCs were then transferred to daughter plates (240 nL) using the Echo acoustic plate reformatter (Labcyte, Sunnyvale, CA) and then diluted into assay buffer (40 μL) to a 2× stock using a Thermo Fisher Combi (Thermo Fisher Scientific, Waltham, MA).
Calcium flux was measured using the Functional Drug Screening System (FDSS) 6000 or 7000 (Hamamatsu Corporation, Tokyo, Japan) as an increase in the fluorescent static ratio. Compounds were applied to cells (20 μL, 2×) using the automated system of the FDSS at 2 seconds into the protocol and the data were collected at 1 Hz. At 143 s, 10 μL of an EC20 concentration of the muscarinic receptor agonist acetylcholine was added (5×), followed by the addition of 12 μL of an EC80 concentration of acetylcholine at the 268 s time point (5×). Agonist activity was analyzed as a concentration-dependent increase in calcium mobilization upon compound addition. Positive allosteric modulator activity was analyzed as a concentration-dependent increase in the EC20 acetylcholine response. Antagonist activity was analyzed as a concentration-dependent decrease in the EC80 acetylcholine response; for the purposes of the tables herein, an IC50 (inhibitory concentration 50) was calculated as a concentration-dependent decrease of the response elicited by an EC80 concentration of acetylcholine. Concentration-response curves were generated using a four-parameter logistical equation in XLFit curve fitting software (IDBS, Bridgewater, NJ) for Excel (Microsoft, Redmond, WA) or Prism (GraphPad Software, Inc., San Diego, CA) or the Dotmatics software platform (Dotmatics, Bishop's Stortford, UK).

SMILES | Human M4 Emin ([1]; Table 10) | IC50 ([1]; Table 10) | Rat M4 Emin [2] | IC50 [2] | IC50 ([1]; Table 9) | Emin ([1]; Table 9)
CC(C)(C)CCN1C[C@H]2C[C@H](Nc3ccc(-c4ccc(F)cc4Cl)nn3)C[C@H]2C1 [Compound 141, (3aR,5s,6aS)-N-[6-(2-chloro-4-fluoro-phenyl)pyridazin-3-yl]-2-(3,3-dimethylbutyl)-3,3a,4,5,6,6a-hexahydro-1H-cyclopenta[c]pyrrol-5-amine] | 4% | 14.8 nM | 3% | 138 nM |  | 
CC(=O)Nc1ccc(-c2ccc(O[C@H]3C[C@@H]4CN(CC5CCOCC5)C[C@@H]4C3)nn2)cc1 [Compound 132, N-[4-[6-[[(3aR,5s,6aS)-2-(tetrahydropyran-4-ylmethyl)-3,3a,4,5,6,6a-hexahydro-1H-cyclopenta[c]pyrrol-5-yl]oxy]pyridazin-3-yl]phenyl]acetamide] | 6% | 648 nM | 6% | 995 nM |  | 
CC(=O)Nc1ccc(-c2ccc(N[C@H]3C[C@@H]4CN(CCC(C)(C)C)C[C@@H]4C3)nn2)cc1 [Compound 140, N-[4-[6-[[(3aR,5s,6aS)-2-(3,3-dimethylbutyl)-3,3a,4,5,6,6a-hexahydro-1H-cyclopenta[c]pyrrol-5-yl]amino]pyridazin-3-yl]phenyl]acetamide] | 5% | 1.08 nM | 3% | 17.1 nM |  | 
c1csc(-c2ccc(N[C@H]3C[C@@H]4CN(CC5CCOCC5)C[C@@H]4C3)nn2)c1 [Compound 226, (3aR,5s,6aS)-2-(tetrahydropyran-4-ylmethyl)-N-[6-(2-thienyl)pyridazin-3-yl]-3,3a,4,5,6,6a-hexahydro-1H-cyclopenta[c]pyrrol-5-amine] | 6% | 22 nM | 14% | 605 nM |  | 
COc1ccc(-c2ccc(N[C@H]3C[C@@H]4CN(CC5CCOCC5)C[C@@H]4C3)nn2)cc1F [Compound 222, (3aR,5s,6aS)-N-[6-(3-fluoro-4-methoxy-phenyl)pyridazin-3-yl]-2-(tetrahydropyran-4-ylmethyl)-3,3a,4,5,6,6a-hexahydro-1H-cyclopenta[c]pyrrol-5-amine] | 3% | 5 nM | 6% | 63.6 nM |  | 
CC(C)(C)CCN1C[C@H]2C[C@H](Oc3ccc(Cl)nn3)C[C@H]2C1 [Compound 128, (3aR,5s,6aS)-5-(6-chloropyridazin-3-yl)oxy-2-(3,3-dimethylbutyl)-3,3a,4,5,6,6a-hexahydro-1H-cyclopenta[c]pyrrole] | 5% | 1090 nM | 17% | 6330 nM |  | 
FC(F)Oc1ccc(-c2ccc(N[C@H]3C[C@@H]4CN(CC5CCOCC5)C[C@@H]4C3)nn2)cc1 [Compound 223, (3aR,5s,6aS)-N-[6-[4-(difluoromethoxy)phenyl]pyridazin-3-yl]-2-(tetrahydropyran-4-ylmethyl)-3,3a,4,5,6,6a-hexahydro-1H-cyclopenta[c]pyrrol-5-amine] | 3% | 6.39 nM | 6% | 121 nM |  | 
CC(C)(C)CCN1C[C@H]2C[C@H](Oc3ccc(-c4cc(F)ccc4Cl)nn3)C[C@H]2C1 [Compound 137, (3aR,5s,6aS)-5-[6-(2-chloro-5-fluoro-phenyl)pyridazin-3-yl]oxy-2-(3,3-dimethylbutyl)-3,3a,4,5,6,6a-hexahydro-1H-cyclopenta[c]pyrrole] | 3% | 19.8 nM | 3% | 313 nM |  | 
c1cc(-c2ccc(N[C@H]3C[C@@H]4CN(CC5CCOCC5)C[C@@H]4C3)nn2)cs1 [Compound 227, (3aR,5s,6aS)-2-(tetrahydropyran-4-ylmethyl)-N-[6-(3-thienyl)pyridazin-3-yl]-3,3a,4,5,6,6a-hexahydro-1H-cyclopenta[c]pyrrol-5-amine] | 5% | 8.4 nM | 13% | 2230 nM |  | 
c1cc(C2CC2)ncc1-c1ccc(N[C@H]2C[C@@H]3CN(CC4CCOCC4)C[C@@H]3C2)nn1 [Compound 232, (3aR,5s,6aS)-N-[6-(6-cyclopropyl-3-pyridyl)pyridazin-3-yl]-2-(tetrahydropyran-4-ylmethyl)-3,3a,4,5,6,6a-hexahydro-1H-cyclopenta[c]pyrrol-5-amine] | 4% | 5.32 nM | 8% | 490 nM |  | 
CC(C)(C)CCN1C[C@H]2C[C@H](Oc3ccc(-c4ccc5c(c4)OCO5)nn3)C[C@H]2C1 [Compound 138, (3aR,5s,6aS)-5-[6-(1,3-benzodioxol-5-yl)pyridazin-3-yl]oxy-2-(3,3-dimethylbutyl)-3,3a,4,5,6,6a-hexahydro-1H-cyclopenta[c]pyrrole] | 3% | 59.1 nM | 3% | 382 nM |  | 
Cc1nn(C)cc1-c1ccc(N[C@@H]2C[C@@H]3CN(CC4CC5C=CC4C5)C[C@@H]3C2)c(F)c1F (stereo partly drawn) [Compound 42, (3aR,5r,6aS)-2-(5-bicyclo[2.2.1]hept-2-enylmethyl)-N-[4-(1,3-dimethylpyrazol-4-yl)-2,3-difluoro-phenyl]-3,3a,4,5,6,6a-hexahydro-1H-cyclopenta[c]pyrrol-5-amine] |  |  |  |  | 422 nM | 4.00%
Fc1ccc(Cl)c(-c2ccc(N[C@H]3C[C@@H]4CN(CC5CCCOC5)C[C@@H]4C3)nn2)c1 (stereo partly drawn) [Compound 33, (3aR,5s,6aS)-N-[6-(2-chloro-5-fluoro-phenyl)pyridazin-3-yl]-2-(tetrahydropyran-3-ylmethyl)-3,3a,4,5,6,6a-hexahydro-1H-cyclopenta[c]pyrrol-5-amine] |  |  |  |  | 1.2 nM | 6.3%
Cc1nn(C)cc1-c1ccc(OCC2C[C@@H]3CN(CCC(C)(C)C)C[C@@H]3C2)nn1 (stereo partly drawn) [Compound 92, (3sR,6aS)-2-(3,3-dimethylbutyl)-5-[[6-(1,3-dimethylpyrazol-4-yl)pyridazin-3-yl]oxymethyl]-3,3a,4,5,6,6a-hexahydro-1H-cyclopenta[c]pyrrole] |  |  |  |  | 58.3 nM | 4.01%
